Common to all, as to assay: NCI tumour cell line growth inhibition, 48 h
Experiment [1] has as its system MCF7 breast.
Experiment [2] relates to SK-MEL-2 melanoma.
Experiment [3] deals with HS 578T breast.
Experiment [4] relates to CAKI-1 renal.
The subject of experiment [5] is TK-10 renal.
Experiment [6] relates to HOP-62 NSCLC.
The test system of experiment [7] is NCI-H460 lung.
In experiment [8] the test system is SN12C renal.
Experiment [9] has as its system MOLT-4 leukemia.
Experiment [10] relates to M14 melanoma.

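All cell lines were grown in 96-well plates and treated with compound for 48 hours. Abbreviation: GI50, concentration required for 50% inhibition of growth. TGI is the concentration that stops growth completely.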 A value given as a limit tells only on which side of the number the result lay.

As for `O=C1c2c(c3c4cc(F)ccc4oc3c3[nH]c4ccccc4c23)C(=O)N1O`, the GI50 was 0.596 µM in [1]; 3.06 µM in [2]; 2.53 µM in experiment [3]; 2.09 µM in experiment [4]; 12 µM in experiment [5]; 1.33 µM in experiment [6]. Further, the GI50 in experiment [7] is 0.565 µM. Further, the TGI in experiment [1] is greater than 100 µM; in experiment [2], 12.6 µM; in [3] it was 9.59 µM; in experiment [4], 9.35 µM; in [5], 53.4 µM; in experiment [6], 17.3 µM. In experiment [7], this molecule gave a TGI of 10.6 µM.

With `O=C(NC(=S)Nc1ccc(Br)cc1)c1ccc2c(c1)Sc1ccccc1O2`, the TGI in [1], in experiment [2], in experiment [3], in experiment [8], in experiment [5] and in experiment [6] was greater than 100 µM in each case. Besides, the TGI in experiment [7], in experiment [9] and in [10] was greater than 100 µM throughout.

Turning to `CN(C)CCNC(=O)c1cccc2c1C(=O)c1ccccc1C2=O`, the TGI is greater than 79 µM in experiment [1]; greater than 90.5 µM in [2]; greater than 100 µM in experiment [4]; greater than 100 µM in experiment [8]; greater than 31.6 µM in [6]; 85.8 µM in [7]. Besides, in experiment [9], the TGI is greater than 71.7 µM.

For `Nc1nnc(N)n1N`, the TGI in [2], in experiment [4], in experiment [5], in experiment [6], in [7] and in [9] was greater than 100 µM each time. For the same molecule, in experiment [10], the TGI is greater than 100 µM.

In the case of `Cc1nc2c(Cl)cc(Cl)cc2c2c1CCO2`, the TGI in [1], in experiment [2], in [3], in experiment [4], in experiment [8] and in experiment [5] was greater than 100 µM each time. Also, the TGI in experiment [7], in experiment [9] and in experiment [10] was greater than 100 µM in each case.

For `COc1cc(/C=C/c2ccc(OC)c(OC)c2)oc(=O)c1`, the TGI in experiment [1] is greater than 250 µM; in experiment [2], greater than 250 µM; in experiment [4], greater than 114 µM; in experiment [8], greater than 250 µM; in experiment [6] it was greater than 250 µM; in experiment [7] it was greater than 250 µM. In addition, in experiment [9], the TGI is greater than 250 µM.

With `COc1ccc(C2=C(OC(C)=O)c3cccn3-c3ccc(Cl)cc3S2)cc1`, the TGI was greater than 10 µM in experiment [1]; greater than 10 µM in [4]; greater than 10 µM in experiment [8]; greater than 10 µM in experiment [5]; greater than 10 µM in experiment [6]; 7.47 µM in [9]. The molecule also yielded a TGI in [10] greater than 10 µM.

Turning to `Cc1[nH]c(=O)nc(N/N=C/c2c3ccccc3c(Cl)c3ccccc23)c1C(=O)Nc1ccc(Cl)cc1`, the TGI in [1], in [2], in experiment [4], in experiment [8], in experiment [5] and in [6] was greater than 100 µM each time. Further, the TGI in [7], in experiment [9] and in experiment [10] was greater than 100 µM throughout.

For `O=c1cc(NNc2ccccc2)[nH]c(=O)[nH]1`, the TGI was 26.3 µM in experiment [1]; greater than 100 µM in [3]; 49.4 µM in experiment [8]; greater than 100 µM in [5]; greater than 100 µM in experiment [6]; 98.9 µM in experiment [7]. The TGI in experiment [9] amounted to 66.1 µM.

For the molecule `CCC1c2[nH]c3ccccc3c2C[C@H]2C(=O)NC(C)C(=O)N12` (some centres not stated), the TGI in experiment [1], in [2], in experiment [3], in [4], in [8] and in [5] was greater than 100 µM throughout. Also, the TGI in [6], in experiment [9] and in experiment [10] was greater than 100 µM in each case.

On to `CC(O)C(CO)NC(=O)C1CSSCC(NC(=O)C(N)Cc2ccccc2)C(=O)NC(Cc2ccccc2)C(=O)NC(Cc2c[nH]c3ccccc23)C(=O)NC(CCCCN)C(=O)NC(C(C)O)C(=O)N1` (configuration not stated), for which the TGI in experiment [1], in experiment [4], in [8], in experiment [5], in experiment [6] and in [7] was greater than 100 µM in each case. The TGI in experiment [9] and in [10] was greater than 100 µM throughout.

As to `O=S1(=O)OCCOS(=O)(=O)C1(F)Cc1ccccc1`, the TGI in experiment [2], in experiment [3], in experiment [4], in experiment [8], in experiment [5] and in experiment [6] was greater than 100 µM in each case. Also, the TGI in [7], in experiment [9] and in [10] was greater than 100 µM each time.

Regarding `COc1ccc2c(c1)/C(=C\c1c(Cl)nc3n1CCS3)C(=O)N2`, the TGI in experiment [1] was 48.5 µM; in experiment [3] it was 44.1 µM; in [4], greater than 100 µM; in [8], 53.3 µM; in [5], 28.1 µM; in experiment [6], greater than 100 µM. Further, the TGI is 18.9 µM in [7], greater than 100 µM in experiment [9] and greater than 100 µM in experiment [10].

Turning to `COC(=O)c1ccc(OCCn2nnc(C(=O)NN)c2C(=O)NN)cc1`, the TGI in [1], in experiment [2], in experiment [4], in experiment [8], in [5] and in [6] was greater than 100 µM in each case. For the same molecule, the TGI in experiment [7], in experiment [9] and in [10] was greater than 100 µM each time.

As to `COc1cc(/C=C2\C(=O)N(c3cccc(NC(C)=O)c3)C(c3ccccc3)S2(=O)=O)cc(OC)c1OC` (configuration not stated), the TGI in experiment [1], in experiment [2], in experiment [4], in experiment [8], in [5] and in [6] was greater than 100 µM throughout. In addition, the TGI in experiment [7] was greater than 100 µM; in experiment [9], 86.3 µM; in experiment [10] it was greater than 100 µM.

`O=C(Cn1c2ccc(Br)cc2c2nc3ccccc3nc21)NCc1ccccc1`: the TGI in experiment [2] is 95.1 µM; in experiment [3], 92.4 µM; in experiment [4], greater than 100 µM; in experiment [8], greater than 100 µM; in experiment [5], 49.5 µM; in experiment [6] it was greater than 100 µM. Also, the TGI in experiment [7], in experiment [9] and in experiment [10] was greater than 100 µM each time.

Regarding `C/C(Cc1ccc2c(c1)OCO2)=N\N=c1\sc2ccccc2n1C`, the TGI in experiment [1], in experiment [2], in experiment [3], in experiment [4], in experiment [8] and in [5] was greater than 100 µM each time. In addition, the TGI in experiment [6], in [9] and in [10] was greater than 100 µM throughout.

As for `O=C1C=C(NCCc2ccc(O)c([N+](=O)[O-])c2)C(=O)c2[nH]cnc21`, the TGI was 78.1 µM in experiment [1]; 51.1 µM in experiment [2]; greater than 100 µM in experiment [3]; greater than 100 µM in [8]; greater than 100 µM in experiment [5]; greater than 100 µM in [6]. Besides, the figures for the TGI in experiment [7], in experiment [9] and in [10] were 69.6 µM, 38.2 µM and 32.3 µM, respectively.

For `Cc1cn(S(=O)(=O)c2ccccc2)c2c(OCc3ccccc3)cc([N+](=O)[O-])cc12`, the TGI in experiment [1], in experiment [2], in [3], in experiment [4], in [8] and in experiment [5] was greater than 100 µM each time. In addition, the TGI in experiment [7], in experiment [9] and in experiment [10] was greater than 100 µM throughout.

Regarding `O=C(O)c1ccc2c(O)c(O)ccc2c1`, the TGI in experiment [1] is greater than 100 µM; in experiment [2] it was 67.3 µM; in experiment [3], 70.9 µM; in experiment [4], 48.2 µM; in experiment [8] it was 27.7 µM; in experiment [5] it was 18.6 µM. For the same molecule, the TGI in [6] worked out at 41 µM; in experiment [9], 18 µM; in [10], 61.8 µM.

On to `CC(C)CC1c2[nH]c3ccccc3c2C[C@H]2C(=O)NC(Cc3c[nH]c4ccccc34)C(=O)N12` (some centres not stated), for which the TGI in experiment [1] is greater than 100 µM; in experiment [2], 32.9 µM; in [3] it was 26.2 µM; in experiment [4] it was 66.1 µM; in experiment [8], 31.1 µM; in experiment [5], 24.5 µM. Further, the TGI in experiment [6] amounted to 45.9 µM; in [9], 39.1 µM; in experiment [10] it was 29 µM.

With `O=C1CCCC2=C1CC1=C(CCCC1=O)N2c1ccc(Cl)cc1`, the TGI in [1], in experiment [3], in [4], in experiment [8], in experiment [5] and in experiment [6] was greater than 100 µM throughout. The TGI in experiment [7], in [9] and in experiment [10] was greater than 100 µM in each case.

Regarding `COc1ccc(-c2cc(-c3ccc(C)cc3)n(C3OC(COC(C)=O)C(OC(C)=O)C(OC(C)=O)C3OC(C)=O)c(=S)c2C#N)cc1` (configuration not stated), the TGI in [1], in experiment [3], in experiment [4], in [8], in experiment [5] and in experiment [6] was greater than 100 µM in each case. In addition, the TGI in experiment [7], in experiment [9] and in experiment [10] was greater than 100 µM in each case.

In the case of `C(=N\NC1=NCCCCN1)/c1ccc2ccccc2c1`, the TGI in experiment [1] was 70.4 µM; in experiment [2] it was 46.7 µM; in [3], greater than 100 µM; in experiment [8] it was greater than 100 µM; in experiment [5], greater than 100 µM; in experiment [6], greater than 100 µM. Besides, the TGI in [7] stood at 62.9 µM; in experiment [9] it was 53.2 µM; in experiment [10], 28 µM.

Take `Cc1cccc2c(=O)c3cccc([C@H](C)C(=O)O)c3oc12`: the TGI in experiment [2], in experiment [3], in experiment [4], in experiment [8], in experiment [5] and in experiment [6] was greater than 100 µM in each case. The TGI in [7], in experiment [9] and in experiment [10] was greater than 100 µM in each case.

On to `CCOP(=O)(OCC)C(c1ccc(F)cc1)N(C(=O)NC(F)(F)F)c1ccc(F)cc1` (configuration not stated), for which the TGI in experiment [1], in experiment [3], in experiment [4], in [8], in experiment [5] and in experiment [6] was greater than 100 µM throughout. Further, the TGI in experiment [7], in [9] and in [10] was greater than 100 µM in each case.

`CC1=NNC(=O)C1C1(C(=O)O)CC(c2c[nH]c3ccccc23)=NC(=S)N1` (configuration not stated): the TGI in [2] was 81.2 µM; in experiment [3], 47.7 µM; in [4], greater than 100 µM; in [8] it was greater than 100 µM; in experiment [5] it was greater than 100 µM; in experiment [6] it was greater than 100 µM. Further, the TGI turned out to be 50.1 µM in experiment [7], 52.7 µM in [9] and 37.9 µM in [10].

Turning to `O=C1OC(C(O)CO)C(C(O)CO)OC1=O` (configuration not stated), the TGI in experiment [1], in [3], in [4], in [8], in [5] and in experiment [6] was greater than 10 µM each time. Further, the TGI in experiment [7], in experiment [9] and in [10] was greater than 10 µM in each case.

On to `CC(C#N)(NO)C(C)(C#N)NO` (configuration not stated), for which the TGI in experiment [1], in experiment [2], in experiment [3], in experiment [4], in experiment [8] and in [5] was greater than 100 µM in each case. The TGI in experiment [7], in [9] and in experiment [10] was greater than 100 µM throughout.

As to `COc1ccc(C2CC(c3sc(Nc4ccc(C)cc4)nc3C)=NN2)cc1` (configuration not stated), the TGI was 31.7 µM in [1]; 30.7 µM in experiment [2]; 41.2 µM in experiment [4]; 28.9 µM in [8]; 38.3 µM in experiment [6]; 30.3 µM in experiment [7]. For the same molecule, the TGI in experiment [9] is 32.7 µM.

Values taken from PubChem BioAssay (NCI).
